Reference: ChEMBL document CHEMBL1201862, “PubChem BioAssay data set” (2004)
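These data come from cells grown in 96-well plates and exposed to compound for 48 hours at five concentrations. GI50 = concentration required for 50% inhibition of growth.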 Calls of active or inactive are those of the source. Cut-off read from the data, not from the text of the source: active = GI50 up to about 1.1 µM and inactive = higher.

Legend:
Assay in all cases: NCI-60 cell line screen, 48 h
SF-539 = test system: SF-539
SK-MEL-5 = test system: SK-MEL-5
SF-268 = test system: SF-268
NCI-H460 = test system: NCI-H460
TK-10 = test system: TK-10
OVCAR-5 = test system: OVCAR-5
Malme-3M = test system: Malme-3M
DU-145 = test system: DU-145
HL-60 = test system: HL-60
LOX IMVI = test system: LOX IMVI
786-0 = test system: 786-0
OVCAR-3 = test system: OVCAR-3
SNB-19 = test system: SNB-19
Hs-578T = test system: Hs-578T
NCI-H226 = test system: NCI-H226
HCC 2998 = test system: HCC 2998
MDA-MB-435 = test system: MDA-MB-435
SNB-75 = test system: SNB-75
HT-29 = test system: HT-29

Measured: GI50

Cc1cc(S(=O)(=O)NC2=Nc3cccc(F)c3CN2)c(S)cc1Cl
inactive: SF-539 84.1 µM | SK-MEL-5 22 µM | SF-268 76.9 µM | NCI-H460 36.8 µM | TK-10 > 100 µM | OVCAR-5 > 100 µM | Malme-3M > 100 µM | DU-145 74.5 µM | HL-60 96.8 µM | LOX IMVI 50.9 µM | 786-0 47.5 µM | OVCAR-3 63 µM | SNB-19 23.2 µM | Hs-578T > 100 µM | NCI-H226 > 100 µM | HCC 2998 > 100 µM | MDA-MB-435 68.9 µM | SNB-75 > 100 µM

Nc1ccc(/C=C/c2ccc3cccnc3c2)cc1
inactive: HT-29 > 100 µM | SF-539 > 100 µM | SK-MEL-5 > 100 µM | SF-268 > 100 µM | NCI-H460 > 100 µM | TK-10 > 100 µM | OVCAR-5 > 100 µM | Malme-3M > 100 µM | DU-145 > 100 µM | HL-60 4.61 µM | LOX IMVI > 100 µM | 786-0 > 100 µM | OVCAR-3 > 100 µM | SNB-19 > 100 µM | Hs-578T > 100 µM | NCI-H226 > 100 µM | HCC 2998 > 100 µM | MDA-MB-435 > 100 µM | SNB-75 > 100 µM

CCOC(=O)c1ccc2c(c1)nc1n2C(c2c(F)cccc2F)SC1 (configuration not stated)
inactive: HT-29 19 µM | SF-539 21.4 µM | SK-MEL-5 13.1 µM | SF-268 32.8 µM | NCI-H460 26.3 µM | TK-10 80.9 µM | OVCAR-5 59.6 µM | DU-145 30.6 µM | HL-60 24.4 µM | LOX IMVI 21.1 µM | 786-0 23.4 µM | OVCAR-3 17.8 µM | SNB-19 12.2 µM | Hs-578T 26.2 µM | NCI-H226 6.9 µM | HCC 2998 35.8 µM | MDA-MB-435 30.6 µM | SNB-75 62.5 µM

O=C(O)c1ccc(C2=Nc3cccc4cccc(c34)N2)cc1
inactive: HT-29 > 100 µM | SF-539 > 100 µM | SK-MEL-5 > 100 µM | SF-268 > 100 µM | NCI-H460 > 100 µM | TK-10 > 100 µM | Malme-3M > 100 µM | DU-145 > 100 µM | HL-60 19.6 µM | LOX IMVI > 100 µM | 786-0 > 100 µM | OVCAR-3 > 100 µM | SNB-19 > 100 µM | Hs-578T > 100 µM | NCI-H226 > 100 µM | HCC 2998 > 100 µM | MDA-MB-435 > 100 µM | SNB-75 > 100 µM

O=C(Nc1ccccc1C(=O)O)C(=Cc1ccccc1O)NC(=O)c1ccccc1
inactive: HT-29 > 100 µM | SF-539 58.6 µM | SK-MEL-5 > 100 µM | SF-268 > 100 µM | NCI-H460 > 100 µM | OVCAR-5 > 100 µM | Malme-3M > 100 µM | DU-145 > 100 µM | HL-60 > 100 µM | LOX IMVI 58.9 µM | 786-0 > 100 µM | OVCAR-3 > 100 µM | SNB-19 > 100 µM | Hs-578T > 100 µM | NCI-H226 61.2 µM | HCC 2998 > 100 µM | MDA-MB-435 32.4 µM | SNB-75 > 100 µM

O=C1Oc2ccccc2C(=O)/C1=C/NC(=S)NCCc1ccccc1
inactive: HT-29 68.1 µM | SF-539 31.2 µM | SK-MEL-5 45.7 µM | SF-268 77.1 µM | NCI-H460 23.8 µM | TK-10 32.1 µM | OVCAR-5 68.4 µM | DU-145 23.4 µM | HL-60 1.85 µM | LOX IMVI 42.9 µM | 786-0 38.7 µM | OVCAR-3 67.1 µM | SNB-19 37.7 µM | Hs-578T 36.6 µM | NCI-H226 > 100 µM | HCC 2998 43.2 µM | MDA-MB-435 48.6 µM | SNB-75 22.7 µM

Cc1ccc(-n2c(N)c(C#N)c3[nH]nc(N)c3c2=O)cc1
inactive: HT-29 > 100 µM | SF-539 > 100 µM | SK-MEL-5 > 100 µM | SF-268 > 100 µM | NCI-H460 > 100 µM | TK-10 > 100 µM | DU-145 > 100 µM | HL-60 > 100 µM | LOX IMVI > 100 µM | 786-0 > 100 µM | SNB-19 > 100 µM | Hs-578T > 100 µM | NCI-H226 41 µM | HCC 2998 > 100 µM | MDA-MB-435 > 100 µM | SNB-75 > 100 µM

C/C=C1\C(=O)OC2CCN3CCC(COC(=O)C(C)(O)C(C)C1O)C23 (configuration not stated)
inactive: HT-29 > 100 µM | SF-539 > 100 µM | SK-MEL-5 > 100 µM | SF-268 > 100 µM | NCI-H460 > 100 µM | TK-10 > 100 µM | OVCAR-5 > 100 µM | Malme-3M > 100 µM | DU-145 > 100 µM | HL-60 > 100 µM | LOX IMVI > 100 µM | 786-0 > 100 µM | SNB-19 > 100 µM | Hs-578T > 100 µM | NCI-H226 > 100 µM | HCC 2998 > 100 µM | MDA-MB-435 > 100 µM | SNB-75 > 100 µM

COc1cc2c(cc1OS(C)(=O)=O)N=C[C@@H]1CCCN1C2=O
inactive: HT-29 > 100 µM | SF-539 > 100 µM | SK-MEL-5 > 100 µM | SF-268 > 100 µM | NCI-H460 > 100 µM | TK-10 > 100 µM | Malme-3M > 100 µM | DU-145 > 100 µM | HL-60 > 100 µM | LOX IMVI > 100 µM | 786-0 > 100 µM | OVCAR-3 > 100 µM | SNB-19 > 100 µM | Hs-578T > 100 µM | NCI-H226 > 100 µM | HCC 2998 > 100 µM | MDA-MB-435 > 100 µM | SNB-75 > 100 µM

COC(=O)C1C(OC(=O)c2ccccc2)CC2CCC1N2C(N)=O (configuration not stated)
inactive: HT-29 > 100 µM | SF-539 > 100 µM | SK-MEL-5 > 100 µM | SF-268 > 100 µM | NCI-H460 > 100 µM | OVCAR-5 > 100 µM | Malme-3M > 100 µM | DU-145 > 100 µM | HL-60 > 100 µM | LOX IMVI > 100 µM | 786-0 > 100 µM | OVCAR-3 > 100 µM | SNB-19 > 100 µM | Hs-578T > 100 µM | NCI-H226 > 100 µM | HCC 2998 > 100 µM | MDA-MB-435 > 100 µM | SNB-75 > 100 µM

Cc1cc(S(=O)(=O)n2ccnc2Oc2cccc(Cl)c2)c(SSc2cc(Cl)c(C)cc2S(=O)(=O)n2ccnc2Oc2cccc(Cl)c2)cc1Cl
inactive: HT-29 7.83 µM | SF-539 4.54 µM | SK-MEL-5 3.42 µM | SF-268 7.43 µM | NCI-H460 7.8 µM | TK-10 29 µM | OVCAR-5 10.4 µM | Malme-3M 5.74 µM | DU-145 5.32 µM | HL-60 4.18 µM | LOX IMVI 30 µM | 786-0 6.79 µM | OVCAR-3 8.02 µM | Hs-578T 4.19 µM | NCI-H226 6.37 µM | HCC 2998 20.7 µM | MDA-MB-435 5.65 µM | SNB-75 7.59 µM
